Measurements reported in patent US20080124407A1, “INHIBITING CYP3A4 INDUCTION” (UNIVERSITY OF WASHINGTON, priority 2006, published 2008).
Read-outs that look alike come from different tables or passages of the source.

Key:
[1] = test system: UGT1A1; assay: UGT1A1 gene expression by QRT-PCR; type: cell-based, human
[2] = biological target: T1, SXR (Homo sapiens, UniProt O75469); assay: Transient transfection luciferase assay, full-length SXR with CYP3A4-luc reporter in HepG2 cells; details: for inhibitory activity toward SXR function (SFN analogs): 24 hrs
T1 sequence (O75469 1-434): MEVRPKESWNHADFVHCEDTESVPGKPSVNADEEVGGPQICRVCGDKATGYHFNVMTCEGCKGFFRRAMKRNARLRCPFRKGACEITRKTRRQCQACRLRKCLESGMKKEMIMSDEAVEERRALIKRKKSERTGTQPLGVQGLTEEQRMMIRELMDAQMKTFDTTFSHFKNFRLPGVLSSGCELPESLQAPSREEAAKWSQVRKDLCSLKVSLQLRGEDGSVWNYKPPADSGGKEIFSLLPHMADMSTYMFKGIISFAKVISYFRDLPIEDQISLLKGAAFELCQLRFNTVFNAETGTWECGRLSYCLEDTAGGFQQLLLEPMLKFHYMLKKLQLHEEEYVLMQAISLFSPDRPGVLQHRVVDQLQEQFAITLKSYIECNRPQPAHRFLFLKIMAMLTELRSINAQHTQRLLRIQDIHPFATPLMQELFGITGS

[3] = biological target: mouse PXR (Mus musculus, UniProt O54915); details: 10 μM SFN
[4] = biological target: rat PXR (Rattus norvegicus, UniProt Q9R1A7); details: 10 μM SFN
[5] = biological target: CAR (Homo sapiens, UniProt Q14994); details: 10 μM SFN
[6] = biological target: VDR (Homo sapiens, UniProt P11473); details: 10 μM SFN
[7] = biological target: PPARα (Homo sapiens, UniProt Q07869); details: 10 μM SFN
[8] = biological target: PPARγ (Homo sapiens, UniProt P37231); details: 10 μM SFN
[9] = biological target: SXR / SRC-1 interaction (Homo sapiens, UniProt O75469); details: 10 μM RIF
[10] = biological target: SXR / PBP interaction (Homo sapiens, UniProt O75469); details: 10 μM RIF
[11] = test system: CYP3A4; details: hepatocytes
[12] = test system: CYP3A4; details: LS180 cells, SFN 24 hrs pre-treatment
[13] = test system: MDR1 (ABCB1); details: LS180 cells
[14] = test system: NQO1; details: LS180 cells, 10 or 25 μM SFN, 48 h
[15] = test system: NQO1; details: human primary hepatocytes, 10 or 25 μM SFN, 48 h
[16] = test system: CYP3A4; details: for average CYP3A4 mRNA levels relative to the solvent control: 48 hrs
[17] = test system: NQO1 and Glutamate Cysteine Ligase (both GCLM and GCLC); details: 10 or 50 μM SFN, 48 hrs
[18] = biological target: GAL4-SXR (Homo sapiens, UniProt O75469); assay: cell-based
[19] = biological target: CYP3A4 (Homo sapiens, UniProt P08684); details: concentrations as high as 50 μM; cited from earlier work
[20] = human subjects who ingest SFN in a broccoli soup; cited from earlier work
[21] = test system: human hepatocytes; details: pretreatment with 50 μM SFN; cited from earlier work
[22] = test system: rat CYP3A; details: in vivo; cited from earlier work
[23] = biological target: human SXR ligand binding domain (Homo sapiens, UniProt O75469); assay: biochemical
[24] = biological target: T2, VP16-SXR (human, UniProt O75469 1-434); assay: mammalian two-hybrid in HepG2 cells (GAL4 reporter, VP16-SXR, GAL-TIF2), with rifampicin
T2 construct: also called steroid and xenobiotic receptor; pregnane X receptor
T2 sequence: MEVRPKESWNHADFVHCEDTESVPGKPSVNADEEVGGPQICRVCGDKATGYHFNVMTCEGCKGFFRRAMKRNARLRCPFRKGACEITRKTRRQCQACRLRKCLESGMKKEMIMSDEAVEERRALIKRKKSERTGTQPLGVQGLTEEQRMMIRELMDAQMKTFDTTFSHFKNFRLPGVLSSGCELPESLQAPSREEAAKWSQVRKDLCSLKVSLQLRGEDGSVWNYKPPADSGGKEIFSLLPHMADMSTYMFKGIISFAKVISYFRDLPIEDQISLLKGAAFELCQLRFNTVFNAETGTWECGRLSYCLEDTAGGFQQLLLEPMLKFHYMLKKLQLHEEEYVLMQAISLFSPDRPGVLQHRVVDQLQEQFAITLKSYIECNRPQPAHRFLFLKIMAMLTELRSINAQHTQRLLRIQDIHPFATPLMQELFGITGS

[25] = biological target: T2, VP16-SXR; assay: mammalian two-hybrid in HepG2 cells (GAL4 reporter, VP16-SXR, GAL-ACTR), with rifampicin

Chain of mouse PXR (O54915 143-430 limits assumed): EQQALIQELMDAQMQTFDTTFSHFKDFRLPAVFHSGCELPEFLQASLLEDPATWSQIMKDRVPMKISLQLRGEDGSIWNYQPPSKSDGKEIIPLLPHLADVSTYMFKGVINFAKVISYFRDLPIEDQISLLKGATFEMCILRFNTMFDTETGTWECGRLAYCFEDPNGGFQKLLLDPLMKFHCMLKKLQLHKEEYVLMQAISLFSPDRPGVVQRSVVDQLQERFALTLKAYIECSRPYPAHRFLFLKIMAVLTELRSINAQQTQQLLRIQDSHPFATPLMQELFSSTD
Chain of rat PXR (Q9R1A7 143-430 limits assumed): as the sequence (O54915 143-430 limits assumed) above, with G36D, F42V, R61S, L68V, Y118H, D121E, H191R, K192E, S272T counted along it
Chain of VDR (P11473 127-423 limits assumed, species assumed): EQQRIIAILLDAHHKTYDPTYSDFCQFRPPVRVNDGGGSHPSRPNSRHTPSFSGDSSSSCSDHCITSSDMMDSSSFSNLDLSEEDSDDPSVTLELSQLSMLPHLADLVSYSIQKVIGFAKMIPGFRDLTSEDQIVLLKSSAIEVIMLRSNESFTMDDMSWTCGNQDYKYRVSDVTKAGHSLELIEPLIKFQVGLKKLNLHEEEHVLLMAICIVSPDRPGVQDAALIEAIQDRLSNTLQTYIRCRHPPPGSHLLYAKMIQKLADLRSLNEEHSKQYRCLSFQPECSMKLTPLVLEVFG
Chain of PPARγ (P37231 238-503 limits assumed, species assumed): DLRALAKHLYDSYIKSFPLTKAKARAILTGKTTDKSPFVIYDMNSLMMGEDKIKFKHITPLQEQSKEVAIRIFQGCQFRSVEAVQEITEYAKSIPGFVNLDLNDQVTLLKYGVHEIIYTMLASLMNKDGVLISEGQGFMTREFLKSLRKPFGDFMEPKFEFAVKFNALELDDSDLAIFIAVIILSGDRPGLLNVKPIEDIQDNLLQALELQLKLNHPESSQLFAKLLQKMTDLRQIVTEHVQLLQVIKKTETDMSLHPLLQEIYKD
Chain of CAR (Q14994 109-352 limits assumed): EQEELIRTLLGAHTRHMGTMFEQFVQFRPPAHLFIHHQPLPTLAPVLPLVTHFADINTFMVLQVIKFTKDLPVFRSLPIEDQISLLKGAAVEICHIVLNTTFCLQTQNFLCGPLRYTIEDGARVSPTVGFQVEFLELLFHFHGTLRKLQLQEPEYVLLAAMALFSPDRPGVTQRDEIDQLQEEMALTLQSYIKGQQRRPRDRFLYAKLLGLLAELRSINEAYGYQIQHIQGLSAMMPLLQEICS
Chain of PPARα (Q07869 239-466 limits assumed, species assumed): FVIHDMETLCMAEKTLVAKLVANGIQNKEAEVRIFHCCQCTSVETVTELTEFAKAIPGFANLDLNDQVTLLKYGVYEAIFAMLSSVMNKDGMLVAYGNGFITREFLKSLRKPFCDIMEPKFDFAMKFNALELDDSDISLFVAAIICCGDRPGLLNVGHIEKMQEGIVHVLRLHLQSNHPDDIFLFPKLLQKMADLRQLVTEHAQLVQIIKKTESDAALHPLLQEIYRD
Chain of CYP3A4 (Homo sapiens, UniProt P08684) (P08684 whole entry): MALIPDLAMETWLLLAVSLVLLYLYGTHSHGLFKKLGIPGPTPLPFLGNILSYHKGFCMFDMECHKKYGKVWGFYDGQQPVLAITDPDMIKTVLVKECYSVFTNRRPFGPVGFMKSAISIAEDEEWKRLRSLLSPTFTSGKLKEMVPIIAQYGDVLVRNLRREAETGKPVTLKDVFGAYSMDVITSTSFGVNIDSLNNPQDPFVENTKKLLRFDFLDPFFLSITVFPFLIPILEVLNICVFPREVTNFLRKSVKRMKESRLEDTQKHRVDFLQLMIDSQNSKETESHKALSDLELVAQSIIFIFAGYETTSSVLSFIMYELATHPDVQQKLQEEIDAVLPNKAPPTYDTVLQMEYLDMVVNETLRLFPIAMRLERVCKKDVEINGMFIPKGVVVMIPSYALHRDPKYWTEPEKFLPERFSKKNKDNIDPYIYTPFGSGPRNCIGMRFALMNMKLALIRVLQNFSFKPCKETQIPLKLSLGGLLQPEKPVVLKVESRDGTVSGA

## CC#C[C@]1(O)CC[C@H]2[C@@H]3CCC4=CC(=O)CCC4=C3[C@@H](c3ccc(N(C)C)cc3)C[C@@]21C [RU486, mifepristone, reference compound]
[1]
  effect on UGT1A1 gene expression: slightly induced

## C[S+]([O-])CCCN=C=S (stereo not drawn) [Iberin]
[2]; 10 μM RIF, compared with SFN
  inhibitory activity toward SXR function (SFN analogs): little effect on inhibitory potency

## C[S+]([O-])CCCCC#N (stereo not drawn) [SFN-nitrile, reference compound]
[2]; 10 μM RIF, compared with SFN
  inhibitory activity toward SXR function (SFN analogs): no inhibitory activity

## S=C=NCCc1ccccc1 [PEITC, reference compound]
[2]; 10 μM RIF, compared with SFN
  inhibitory activity toward SXR function (SFN analogs): substantial loss of the inhibitory effect

## CS(=O)(=O)CCCN=C=S [Cheirolin]
[2]; 10 μM RIF, low concentration, compared with SFN
  inhibitory effect toward SXR function at low concentration: less potent at low concentration

## C[S+]([O-])CCCCN=C=S (stereo not drawn) [SFN, 4-methylsulfinylbutyl isothiocyanate]
[1]
  effect on UGT1A1 gene expression: induced UGT1A1 gene expression
[3]
  activity as activating ligand of mPXR: nor did it serve as an activating ligand
  inhibition of ligand activation of mPXR: did not inhibit ligand activation
[4]
  activity as activating ligand of rPXR: nor did it serve as an activating ligand
  inhibition of ligand activation of rPXR: did not inhibit ligand activation
[5]
  activity as activating ligand of CAR: nor did it serve as an activating ligand
  inhibition of ligand activation of CAR: did not inhibit ligand activation
[6]
  activity as activating ligand of VDR: nor did it serve as an activating ligand
  inhibition of ligand activation of VDR: did not inhibit ligand activation
[7]
  activity as activating ligand of PPARα: nor did it serve as an activating ligand
  inhibition of ligand activation of PPARα: did not inhibit ligand activation
[8]
  activity as activating ligand of PPARγ: nor did it serve as an activating ligand
  inhibition of ligand activation of PPARγ: did not inhibit ligand activation
[9]
  inhibition of RIF induced SRC-1 recruitment to SXR: inhibited RIF induced SRC-1 and PBP recruitment to SXR in a dose dependent manner
[10]
  inhibition of RIF induced PBP recruitment to SXR: inhibited RIF induced SRC-1 and PBP recruitment to SXR in a dose dependent manner
[11]
  effect on basal level of CYP3A4 expression: significantly reduced the basal level
[12]
  reduction in RIF- and RU486-mediated induction of CYP3A4: dose-related reduction
[13]
  inhibition of RIF or RU486 induced expression of MDR1 (ABCB1): inhibited RIF or RU486 induced expression of MDR1
[14]
  induction of NQO1: significantly induced
[15]
  induction of NQO1: significantly induced
[16]; 10 μM SFN
  average CYP3A4 mRNA levels relative to the solvent control: 69%
[16]; 25 μM SFN
  average CYP3A4 mRNA levels relative to the solvent control: 20%
[16]; 50 μM SFN
  average CYP3A4 mRNA levels relative to the solvent control: 13%
[16]; single individuals
  CYP3A4 responses in single individuals, lowest, of the solvent control: 2%
[17]
  mRNA levels of detoxification enzymes including NQO1, GCLM and GCLC: increased mRNA levels
[18]
  IC50: 14 µM
[19]
  direct inhibition of CYP3A4 catalytic activity: not a direct inhibitor
[20]
  peak plasma concentration of unconjugated SFN: 4 to 5 µM
[21]
  decrease in DNA adduction of aflatoxin B1: > 90%
[22]
  inhibition of rat CYP3A gene expression: did not inhibit rat CYP3A gene expression
[23]
  Ki: 16 µM
[2]
  IC50: ~12 µM
[2]; 10 μM RIF or RU486, dose-dependent
  inhibition of RIF and RU486 induced reporter activities: significantly inhibited
[2]; 25 μM SFN, 10 μM RIF
  inhibition of RIF induced SXR reporter activity: blocked most of the RIF induced SXR reporter activity
[2]; HepG2, RIF or RU486 induced
  concentration as low as which SXR reporter activity was inhibited: 1000 nM

B1: GAL4 DNA-binding domain linked to the receptor interaction domains of transcriptional intermediary factor (GAL-TIF2) (other)
chain: MKLLSSIEQACDICRLKKLKCSKEKPKCAKCLKNNWECRYSPKTKRSPLTRAHLTEVESRLERLEQLFLLIFPREDLDMILKMDSLQDIKALLTGLFVQDNVNKDAVTDRLASVETDMPLTLRQHRISATSSSEESSNKGQRQLTVSQNSPVNMNPPPLSKMGSLDSKDCFGLYGEPSEGTTGQAESSCHPGEQKETNDPNLPPAVSSERADGQSRLHDSKGQTKLLQLLTTKSDQMEPSPLASSLSDTNKDSTGSLPGSGSTHGTSLKEKHKILHRLLQDSSSPVDLAKLTAEATGKDLSQESSSTAPGSEVTIKQEPVSPKKKENALLRYLLDKDDTKDIGLPEITPKLERLDSKTDPASNTKLIAMKTEKEE
[24]
  binding result: no binding (tested: 10 µM RIF)

B2: GAL4 DNA-binding domain linked to the receptor interaction domains of activator of thyroid and retinoic acid receptor (GAL-ACTR) (other)
chain: MKLLSSIEQACDICRLKKLKCSKEKPKCAKCLKNNWECRYSPKTKRSPLTRAHLTEVESRLERLEQLFLLIFPREDLDMILKMDSLQDIKALLTGLFVQDNVNKDAVTDRLASVETDMPLTLRQHRISATSSSEESSNKGQRQLTVSESSVEGAENQRGPLESKGHKKLLQLLTCSSDDRGHSSLTNSPLDSSCKESSVSVTSPSGVSSSTSGGVSSTSNMHGSLLQEKHRILHKLLQNGNSPAEVAKITAEATGKDTSSITSCGDGNVVKQEQLSPKKKENNALLRYLLDRDDPSDALSKELQPQVEGVDNKMSQCTSSTIPSSSQEKDPKIKTE
[25]
  binding result: no binding (tested: 10 µM RIF)
